Tests used:
[1] = target: FGF-2 (Homo sapiens, UniProt P09038); experiment: Growth factor binding assay (SPR solution affinity), FGF-2; details: SPR, HBS-EP buffer containing 0.3 M NaCl, 25° C.; read-out: Kd FGF-2
How it was run: (§1)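 Kd measured by SPR solution affinity: fixed growth factor with varying ligand competing for heparin-coated sensorchip, 25 °C. Buffer HBS-EP pH 7.4 (150 mM NaCl) for FGF-1 and VEGF; FGF-2 with 0.3 M NaCl. Duplicate values averaged.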

[2] = system: pooled normal human plasma; experiment: Anticoagulant activity, APTT; details: 0.1 mg/mL in normal pooled human plasma
Experimental: APTT measurements were performed on a STAGO STA-Compact Coagulation Analyser using standard protocols according to the manufacturer's instructions. Unfractionated heparin (UFH) was used as a control.

[3] = system: normal pooled human plasma; experiment: Anticoagulant activity, Heptest; details: 0.1 mg/mL in normal pooled human plasma
[4] = target: T1, VEGF (Homo sapiens, UniProt P15692); experiment: Growth factor binding assay (SPR solution affinity), VEGF; details: HBS-EP buffer, 25° C.
T1 sequence (P15692 207-395): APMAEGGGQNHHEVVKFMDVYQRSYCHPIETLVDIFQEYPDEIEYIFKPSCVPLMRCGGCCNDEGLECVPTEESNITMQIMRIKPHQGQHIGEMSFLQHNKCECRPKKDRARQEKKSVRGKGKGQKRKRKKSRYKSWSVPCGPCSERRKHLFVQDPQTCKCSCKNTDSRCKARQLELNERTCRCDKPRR
How it was run: as §1

[5] = format: in vivo, Sprague-Dawley rats; details: Sprague-Dawley rats, radiolabelled compound in plasma
Experimental: Adult male Sprague-Dawley (SD) rats (approx 300 g) were used for the experiment. Femoral artery cannulae was implanted and exteriorised following isoflurane anaesthesia. Jugular vein artery cannulae was implanted and exteriorized. […]. Blood samples (˜325 μL) were collected into sample tubes containing the anticoagulant sodium citrate from femoral artery catheter pre-dose and at 5, 20 minutes and 2, 5, 8, 12, 24, and 48 hours post-dose, and kept at reduced temperature (approx 4° C.) until centrifuged. Blood samples were centrifuged, plasma separated and 50 μL aliquot of the plasma transferred to a scintillation vial for counting. At the end of the experimental period animals were euthanased via a lethal overdose of pentobarbital. The level of radioactivity in the plasma was measured following mixing of samples with Packard Ultima Gold liquid scintillation counting cocktail. Counting was conducted on a Beckman liquid scintillation counter (LS6500) or Packard TriCarb liquid scintillation counter for 10 minutes per sample. Results (DPM, calculated from an in-built quench curve in the counter) were corrected for background prior to any calculations. The pharmacokinetic parameters were calculated using PK Solutions 2.0 software (Summit Research Services, Ohio, U.S.A.) and are summarised in Table 11 below.

[6] = system: rat aortic tissue; experiment: Ex vivo angiogenic sprout assay (rat aortic angiogenesis assay); format: cell-based, Sprague Dawley rats
Experimental: Explants from rat aortas were prepared by a modification of protocols previously described^42-54. In this model, the rat aortic endothelium exposed to a three dimensional matrix of ECM-derived proteins (Matrigel™), switches to a microvascular phenotype, generating branching networks of microvessels.
Briefly, thoracic aortas were excised from 2- to 4-month old Sprague Dawley rats and trimmed of remaining fat and connective tissue. Great care was taken at every stage to reduce physical damage of the aorta. Tissue was transferred to complete EBM-2 media (Cambrex) containing 2% FCS and all Singlequots™ (Cambrex) reagents except for heparin. Meanwhile, Matrigel™ (BD Biosciences) was allowed to cool on ice and once in a liquid form, 180 μL was pipetted into 48-well tissue culture plates (Nunc). The plates were incubated at 37° C. for 30 min to allow Matrigel™ to solidify.
Aortas were prepared by cutting 1 mm ring sections and then being bisected. Aortic segments were then carefully placed on top on the Matrigel™ in the centre of each well and once orientated as required, 60 μL of extra Matrigel™ was placed on top and the plate was returned to the incubator for a further 20 min. Each well was then supplemented with 1.0 mL media in the absence (control) or presence of test compounds usually at two concentrations within the range of 1-50 μM, depending on the particular compound/experiment. Cultures were replenished as appropriate every 48 h and scoring of microvessels was carried out at various timepoints up to 8-10 days. The extent of microvessel sprouting was determined by employing a scoring system from 0-5, where 0=no microvessels to 5=diffuse angiogenesis as previously described^45. Sprouting vessels were photographed using the 4× objective with an Olympus C-7070 camera and an adaptor for the eyepiece.
In some instances, to determine the potential toxicity of compounds in this assay, the viability of the tissue was assessed by withdrawing the compound/media from the culture on day 6 or 7 and adding complete media with VEGF (typically 10 ng/mL) for up to an additional 7 days. In the absence of toxicity, the viable tissue should sprout microvessels in response to the exogenous growth factor.
The inhibitory effect of compounds of the present invention on angiogenesis was assayed using the angiogenic sprout/microvessel formation (rat aortic) assay described above. Embedding of the rat aortic tissue in Matrigel™ in the absence of any inhibitor (control) yielded extensive angiogenic sprouting (as a score of 5 indicates diffuse angiogenesis) as illustrated by FIG. 1.

[7] = target: FGF-1 (Homo sapiens, UniProt P05230); experiment: Growth factor binding assay (SPR solution affinity), FGF-1; details: SPR, HBS-EP buffer, 25° C.; read-out: Kd FGF-1
FGF-1, sequence (P05230 whole entry, species assumed): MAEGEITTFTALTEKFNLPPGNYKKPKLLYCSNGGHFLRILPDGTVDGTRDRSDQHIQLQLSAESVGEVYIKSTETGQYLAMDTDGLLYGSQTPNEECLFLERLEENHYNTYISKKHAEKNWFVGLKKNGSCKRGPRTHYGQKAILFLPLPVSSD

[8] = target: T2, recombinant human heparanase (Homo sapiens, UniProt Q9Y251); experiment: Heparanase inhibition assay (fondaparinux cleavage, WST-1); details: read-out: Ki Heparanase; IC50 converted into Ki; fondaparinux 100 μM, pH 5.0
T2 sequence (Q9Y251 158-543 limits assumed): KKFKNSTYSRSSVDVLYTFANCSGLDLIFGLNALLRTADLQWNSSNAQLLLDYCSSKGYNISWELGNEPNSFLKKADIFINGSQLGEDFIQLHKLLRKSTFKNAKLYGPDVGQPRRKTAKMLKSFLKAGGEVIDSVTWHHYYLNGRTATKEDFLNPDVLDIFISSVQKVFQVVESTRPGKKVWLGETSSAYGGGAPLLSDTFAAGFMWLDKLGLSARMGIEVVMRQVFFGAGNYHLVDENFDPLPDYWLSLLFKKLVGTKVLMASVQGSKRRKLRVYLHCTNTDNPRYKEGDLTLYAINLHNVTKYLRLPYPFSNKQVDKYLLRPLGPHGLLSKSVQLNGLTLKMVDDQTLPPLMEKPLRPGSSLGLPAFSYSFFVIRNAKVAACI
T2 sequence (Q9Y251 36-109 limits assumed): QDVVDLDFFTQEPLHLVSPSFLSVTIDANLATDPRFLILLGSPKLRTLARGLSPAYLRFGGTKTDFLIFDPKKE

[9] = system: HUVECs; experiment: Matrigel microtubule formation assay; format: cell-based, human; details: 10 μM, relative to controls
Experimental: (§2) Medium for the proliferation studies was prepared using EGM with 2% FBS and gentamicin only. In a later study, complete EGM was used for the VEGF groups in an attempt to enhance the proliferative index of VEGF-stimulated groups. For the tube formation assay, complete medium was used with only heparin omitted. Compounds under investigation were weighed out from powder stocks and diluted in PBS to 10 mM stock solutions and stored at −80° C. For experiments, compounds were subsequently diluted in EBM-2 medium (supplemented with 2% FBS and gentamicin) to various working concentration as required.
The tube formation assay was performed essentially as described by Malinda et al., with modifications.^41 HUVECs in the fourth or fifth passage at 70-80% confluence were harvested and resuspended in Lonza endothelial growth medium (EGM2) containing all supplements as directed by manufacturer, except heparin, at a cell density of 4×10^5 cells per mL. For each set of triplicate wells, 200 μL of cells (4×10^5/mL) were treated with an equal volume of compound to obtain final concentrations of 10, 50 or 100 μM (thus ensuring 1×300 μL are available for each condition). A 100 μL aliquot of cells was then plated onto 96-well plates pre-coated with growth factor reduced Matrigel™ (50 μL for 30 min followed by a further 30 μL for 1 h) and incubated for 18-22 h. Tube formation was examined by phase-contrast microscopy and images were collected using an Olympus C5050 digital camera. Tube formation inhibition was quantitated manually from images by recording the total number of nodes connecting 3 or more tubules. Untreated HUVECs were used as a control for normal cell growth and tube formation in Matrigel.

[10] = system: HUVEC proliferation induced by FGF-1; experiment: Growth factor induced endothelial cell proliferation assay, FGF-1; format: cell-based, human; details: 72 h; read-out: FGF-1 (IC50) inhibition of HUVEC proliferation
Description: (§3) HUVEC cells were maintained and subcultured according to standard cell culture protocols essentially as described by Lonza. Briefly, cells were maintained in Lonza endothelial growth media (EGM) with recommended supplements and growth factors (VEGF, FGF2, EFG, IGF, hydrocortisone, fetal bovine serum (FBS), ascorbic acid, heparin and gentamicin). Cells were subcultured when they reached 70-80% confluence by trypsinisation and reseeding in fresh growth medium in new culture vessels at 2500 to 5000 cells/cm^2 of vessel surface area. Cell counts were performed using a haemocytometer and viable cells were visualized with trypan blue.
as §2
(§4) In the first of a series of experiments, the assay was further optimized by examining the cell density and growth factor concentration required to induce maximal proliferation by growth factors. Briefly, 100 μL of cells was added to each well at concentrations between 1-3×10^3 per well. Growth factors and test compounds were then added in 50 μL volumes at specified concentrations to obtain a final volume of 200 μL. Following incubation for 70 h, 20 μL of the CellTitre 96® Aqueous One Solution Cell Proliferation Assay (Promega) was added for 2 h prior to reading the absorbance at 490 nm to obtain OD values.

[11] = system: HUVEC proliferation induced by FGF-2; experiment: Growth factor induced endothelial cell proliferation assay, FGF-2; format: cell-based, human; details: 72 h; read-out: FGF-2 (IC50) inhibition of HUVEC proliferation
Description: as §3, §2, §4

[12] = system: HUVEC proliferation induced by VEGF; experiment: Growth factor induced endothelial cell proliferation assay, VEGF; format: cell-based, human; details: 72 h; read-out: VEGF (IC50) inhibition of HUVEC proliferation
Description: as §3, §2, §4

FGF-2, sequence (P09038 143-288, species assumed): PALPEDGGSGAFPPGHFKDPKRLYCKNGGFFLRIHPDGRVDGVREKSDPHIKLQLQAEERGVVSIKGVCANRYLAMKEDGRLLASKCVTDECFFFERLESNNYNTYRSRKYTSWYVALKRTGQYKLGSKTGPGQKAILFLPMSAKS

Kd [1] [µM]	Kd [4] [µM]	Half-life (iv) ([5]; intra venous) [h]	Half-life (sc) ([5]; subcutaneous) [h]	Ki [8] [µM]	Structure (SMILES)	APTT [2] [s]	Heptest [3] [s]	inhibition at 10 µM ([6]; Rattus norvegicus) [%]	Kd [7] [µM]	inhibition at 10 µM ([9]; Homo sapiens, HUVEC, read-out: Microtubule Formation % inhibition at 10 μM) [%]	% Inhibition of Angiogenesis (10 μM) ([6]; 10 μM) [%]	IC50 [10] [µM]	IC50 [11] [µM]	Microtubule Formation % inhibition at 10 μM [9] [%]	IC50 [12] [µM]
0.39 ± 0.08	0.0289 ± 0.0023	17.3	21.3	–	CC(C)CCCC(C)C1CCC2C3CCC4CC(OC5OC(COS(=O)(=O)O)C(OC6OC(COS(=O)(=O)O)C(OC7OC(COS(=O)(=O)O)C(OC8OC(COS(=O)(=O)O)C(OS(=O)(=O)O)C(OS(=O)(=O)O)C8OS(=O)(=O)O)C(OS(=O)(=O)O)C7OS(=O)(=O)O)C(OS(=O)(=O)O)C6OS(=O)(=O)O)C(OS(=O)(=O)O)C5OS(=O)(=O)O)CCC4(C)C3CCC12C [Compound 65, 3β-Cholestanyl 2,3,4,6-tetra-O-sodium sulfonato-α-D-glucopyranosyl-(1→4)-2,3,6-tri-O-sodium sulfonato-α-D-glucopyranosyl-(1→4)-2,3,6-tri-O-sodium sulfonato-α-D-glucopyranosyl-(1→4)-2,3,6-tri-O-sodium sulfonato-β-D-glucopyranoside]	71.9	28.6	–	–	–	–	–	–	–	–
0.53 ± 0.05	0.38 ± 0.11	–	–	0.0113 ± 0.0004	CCCCCCCCCCCCCCCCCC(=O)NCCCO[C@@H]1O[C@H](COS(=O)(=O)[O-])[C@@H](O[C@H]2O[C@H](COS(=O)(=O)[O-])[C@@H](O[C@H]3O[C@H](COS(=O)(=O)[O-])[C@@H](OS(=O)(=O)[O-])[C@H](OS(=O)(=O)[O-])[C@H]3OS(=O)(=O)[O-])[C@H](OS(=O)(=O)[O-])[C@H]2OS(=O)(=O)[O-])[C@H](OS(=O)(=O)[O-])[C@H]1OS(=O)(=O)[O-].[Na+].[Na+].[Na+].[Na+].[Na+].[Na+].[Na+].[Na+].[Na+].[Na+] [Compound 123, 3-Stearamidopropyl 2,3,4,6-tetra-O-sulfo-α-D-glucopyranosyl-(1→4)-2,3,6-tri-O-sulfo-α-D-glucopyranosyl-(1→4)-2,3,6-tri-O-sulfo-β-D-glucopyranoside, decasodium salt]	51.1	24.9	23	0.0322 ± 0.0023	33	–	–	–	–	–

Structure (SMILES)	Kd [1] [µM]	Kd [4] [µM]	Half-life (iv) ([5]; intra venous) [h]	Half-life (sc) ([5]; subcutaneous) [h]	Ki [8] [µM]	APTT [2] [s]	Heptest [3] [s]	inhibition at 10 µM ([6]; Rattus norvegicus) [%]	Kd [7] [µM]	inhibition at 10 µM ([9]; Homo sapiens, HUVEC, read-out: Microtubule Formation % inhibition at 10 μM) [%]	% Inhibition of Angiogenesis (10 μM) ([6]; 10 μM) [%]	IC50 [10] [µM]	IC50 [11] [µM]	Microtubule Formation % inhibition at 10 μM [9] [%]	IC50 [12] [µM]
CC(C)CCC[C@@H](C)[C@H]1CC[C@H]2[C@@H]3CCC4CC(OCCCNC(=S)N[C@@H]5O[C@H](COS(=O)(=O)[O-])[C@@H](O[C@H]6O[C@H](COS(=O)(=O)[O-])[C@@H](O[C@H]7O[C@H](COS(=O)(=O)[O-])[C@@H](OS(=O)(=O)[O-])[C@H](OS(=O)(=O)[O-])[C@H]7OS(=O)(=O)[O-])[C@H](OS(=O)(=O)[O-])[C@H]6OS(=O)(=O)[O-])[C@H](OS(=O)(=O)[O-])[C@H]5OS(=O)(=O)[O-])CC[C@]4(C)[C@H]3CC[C@]12C.[Na+].[Na+].[Na+].[Na+].[Na+].[Na+].[Na+].[Na+].[Na+].[Na+] (stereo partly drawn) [Compound 139, 1-[(Cholestan-3-yloxy)propyl]-3-[2,3,4,6-tetra-O-sulfo-α-D-glucopyranosyl-(1→4)-2,3,6-tri-O-sulfo-α-D-glucopyranosyl-(1→4)-2,3,6-tri-O-sulfo-β-D-glucopyranoside]thiourea, decasodium salt]	0.88 ± 0.11	0.379 ± 0.013	–	–	–	–	–	–	0.072 ± 0.012	–	92	2.16	1.5	36	2.31

Reference: patent US20150065440A1 (Progen Pharmaceuticals Limited, priority 2007, published 2015)
